Assay results published in PMC3990509, “Structures of Trypanosoma brucei Methionyl-tRNA Synthetase with Urea-Based Inhibitors Provide Guidance for Drug Design against Sleeping Sickness” (PLoS Neglected Tropical Diseases, 2014).
“Also recorded” adds a separate entry of the source. Like-named read-outs stand apart in the source and are kept apart here.

How the values were obtained:
[1] = biological target: T1, TbMetRS (Trypanosoma brucei brucei, UniProt Q38C91); test: Thermal melt of TbMetRS with combinations of ligands (Chem 1433, ATP, AMPPCP, Mg2+); assay type: binding; settings: for change in Tm of TbMetRS in the presence of the nucleotide and Mg2+: compared to TbMetRS only, no inhibitor
T1 construct: hexa-histidine tag (3C protease site) (N, cleaved yes); made in house; host or cells: E. coli
T1 sequence (Q38C91 1-773): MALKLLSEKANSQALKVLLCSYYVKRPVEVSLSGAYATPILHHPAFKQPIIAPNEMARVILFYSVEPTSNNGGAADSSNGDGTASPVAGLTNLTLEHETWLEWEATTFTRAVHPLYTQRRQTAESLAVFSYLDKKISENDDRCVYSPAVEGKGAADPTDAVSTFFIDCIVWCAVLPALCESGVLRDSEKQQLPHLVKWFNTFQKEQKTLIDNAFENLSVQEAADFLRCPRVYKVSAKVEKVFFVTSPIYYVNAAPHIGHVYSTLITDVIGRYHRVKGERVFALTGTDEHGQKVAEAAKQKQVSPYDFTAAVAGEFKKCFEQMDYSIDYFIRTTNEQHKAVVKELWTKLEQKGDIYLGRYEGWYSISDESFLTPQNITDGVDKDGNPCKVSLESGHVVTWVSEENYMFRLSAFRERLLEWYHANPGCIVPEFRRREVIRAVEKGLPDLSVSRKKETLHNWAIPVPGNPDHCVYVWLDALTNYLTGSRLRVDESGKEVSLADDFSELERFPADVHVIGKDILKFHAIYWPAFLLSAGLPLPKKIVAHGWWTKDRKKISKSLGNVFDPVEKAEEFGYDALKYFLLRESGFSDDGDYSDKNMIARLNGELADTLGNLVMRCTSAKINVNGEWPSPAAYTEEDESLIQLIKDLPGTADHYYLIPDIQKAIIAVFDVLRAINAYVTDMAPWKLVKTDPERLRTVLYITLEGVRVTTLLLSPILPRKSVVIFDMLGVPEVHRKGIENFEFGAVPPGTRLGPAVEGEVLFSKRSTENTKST
Experimental: Thermal melt experiments on TbMetRS in the presence of different combinations of ligands were performed to determine the nature of the interactions between Chem 1433 and ATP when they are bound to TbMetRS. A similar analysis has been used to establish synergism between an inhibitor of human ProRS, halofuginone, and ATP [25]. An increase in Tm of the TbMetRS•1433 complex upon adding ATP may be an indication of synergism between Chem 1433 and ATP in binding. […] Instead, the addition of ATP-Mg^2+ or AMPPCP-Mg^2+ to the complex of the TbMetRS•Chem 1433 complex result in increase of Tm by an average of 1.6°C (n = 4, P<0.02) and 1.2°C (n = 4, P<0.05), respectively, compared to the Tm of TbMetRS•Chem 1433 alone (Figure S4).
(§1) Supplementary file pntd.0002775.s004.pdf: Figure S4 Thermal melting curves of Tb MetRS in the presence of different ligands. TbMetRS (0.1 mg/ml) is incubated in the presence of different ligands as indicated. The incubation temperature of the samples is increased from 20°C to 90°C and the fluorescence signal from the reporter dye (Sypro Orange) monitored. Melting temperatures (Tm) are calculated from the curves as the temperature where the first derivative value is maximal. The average Tm value of TbMetRS in the presence of Chem 1433, ATP and Mg^2+ (purple dash) is 1.6°C higher than the Tm of TbMetRS in the presence of Chem 1433 only (n = 4, P<0.02). The average Tm of TbMetRS in the presence of Chem 1433, AMPPCP and Mg^2+ (black dot) is 1.2°C higher than the Tm of TbMetRS in the presence of Chem 1433 only (n = 4, P<0.05). Changes in Tm of TbMetRS in the presence of ATP and Mg^2+ or AMPPCP and Mg^2+ compared to TbMetRS only are insignificant (P>0.3 and 0.8 respectively). (PDF) Click here for additional data file.
A typical thermal melting curves of TbMetRS in the presence of different ligands.
as §1, with “TbMetRS” for “Supplementary file pntd.0002775.s004.pdf: Figure S4 Thermal melting curves of Tb MetRS in the presence of different ligands. TbMetRS”, “Mg2+” for “Mg^2+”, “P < 0.02).” for “P<0.02).”, “P < 0.05).” for “P<0.05).”, “(P > 0.3” for “(P>0.3”, “respectively).” for “respectively). (PDF) Click here for additional data file.”
(1 picture or pasted object on this page, not shown here)

[2] = biological target: T2, T. brucei methionyl-tRNA synthetase (TbMetRS) (Trypanosoma brucei brucei, UniProt Q38C91); parameters: method as in PMID 22720744; settings: previously reported ABI, used for comparison; read-out: IC50 of the ABI Chem 1312 against TbMetRS; cited from earlier work
T2 construct: hexa-histidine tag (3C protease site) (N, cleaved yes); made in house; host or cells: E. coli
T2 sequence (Q38C91 1-773): T1 sequence (Q38C91 1-773)

[3] = parameters: method as in PMID 22720744; settings: cited from earlier work
[4] = test system: T. brucei brucei (bloodstream form strain 427); test: T. brucei growth inhibition assay; assay type: cell-based; settings: Trypanosoma brucei, read-out: EC50 (growth of T. brucei in cell culture)
Description: T. brucei brucei (bloodstream form strain 427 from K. Stuart, Seattle BioMed, Seattle, WA) were used for EC50 measurements as previously described, [14].

[5] = test system: MDR-1 MDCKII; settings: cited from earlier work
[6] = test system: T. brucei infection; parameters: method as in PMID 22720744; settings: administered orally; cited from earlier work
[7] = biological target: T2, T. brucei methionyl-tRNA synthetase (TbMetRS); test: T. brucei methionyl-tRNA synthetase aminoacylation assay; assay type: biochemical; settings: for IC50: read-out: IC50 (aminoacylation activity of purified TbMetRS)
Experimental: Compound IC50s were determined in the T. brucei methionyl-tRNA synthetase aminoacylation assay as previously described, [14] except 10 U/mL of pyrophosphatase was used per reaction.

[8] = test system: Staphylococcus aureus MetRS; parameters: method as in PMID 19015366; settings: physiological ATP 2500 µM versus 25 µM; cited from earlier work

Structure (SMILES) | EC50 [4] [µM] | IC50 [7] [µM] | further results
Nc1ncnc2c1ncn2C1OC(COP(=O)(O)OP(=O)(O)CP(=O)(O)O)C(O)C1O (stereo not drawn) [AMPPCP, β,γ-methyleneadenosine 5′-triphosphate] |  |  | change in Tm of TbMetRS in the presence of the nucleotide and Mg2+ [1]: does not change significantly; also recorded: insignificant
Nc1ncnc2c1ncn2[C@@H]1O[C@H](COP(=O)(O)OP(=O)(O)OP(=O)(O)O)[C@@H](O)[C@H]1O [ATP] |  |  | change in Tm of TbMetRS in the presence of the nucleotide and Mg2+ [1]: does not change significantly; also recorded: insignificant
Oc1cc(NCCCNCc2cc(Cl)cc(Cl)c2)nc2ccccc12 [Chem 1312] |  |  | IC50 [2]: 0.008 µM
O=C(NCCCNCc1cc(Cl)cc(Cl)c1)Nc1ccccc1 [Chem 1356] | 0.357 | 0.057 | entry into the central nervous system [3]: enter the central nervous system; oral bioavailability [3]: reasonable oral bioavailability; membrane permeability [5]: excellent membrane permeability; activity against the parasite in a mouse model [6]: suppressive activity
O=C(NCCCNCc1cc(Cl)cc(Cl)c1)Nc1cccc(O)c1 [Chem 1387] | 0.17 |  | 
O=C(NCCCNCc1cc(Cl)cc(Cl)c1)Nc1ccccc1O [Chem 1392] | 0.21 |  | 
COc1cc(Cl)cc(CNCCCNC(=O)Nc2ccccc2)c1 [Chem 1415] | 0.267 | 0.045 | 
O=C(NCCCNCc1cc(Cl)cc(Cl)c1)Nc1ccsc1 [Chem 1433] | 0.19 | 0.028 | entry into the central nervous system [3]: enter the central nervous system; oral bioavailability [3]: reasonable oral bioavailability; increase of Tm on addition of ATP-Mg2+ to the TbMetRS•Chem 1433 complex ([1]; compared to Tm of TbMetRS•Chem 1433 alone, n = 4, P<0.02, TbMetRS 0.1 mg/ml): 1.6 °C; increase of Tm on addition of AMPPCP-Mg2+ to the TbMetRS•Chem 1433 complex ([1]; compared to Tm of TbMetRS•Chem 1433 alone, n = 4, P<0.05, TbMetRS 0.1 mg/ml): 1.2 °C; activity against the parasite in a mouse model [6]: moderate activity; also recorded: suppressive activity; fold less favorable IC50 than Chem 1312 ([7]; Chem 1433 (UBI) versus Chem 1312 (ABI)): ~3.5 fold
COc1cc(Cl)cc(CNCCCNC(=O)Nc2ccsc2)c1 [Chem 1444] | 0.15 | 0.019 | 
CCOc1c(I)cc(Cl)cc1CNCCCNC(=O)Nc1ccsc1 [Chem 1469] | 9.55 | > 10 | 
C=CCc1cc(Cl)cc(CNCCCNC(=O)Nc2ccsc2)c1O [Chem 1472] | 5.26 | 0.198 | 
O=C(NCCCNCc1cc(Cl)cc(I)c1O)Nc1ccsc1 [Chem 1473] | 3.84 | 0.316 | 
C=CCOc1c(CC=C)cc(Cl)cc1CNCCCNC(=O)Nc1ccsc1 [Chem 1475] | 1.16 | 1.23 | 
C=CCc1cc(Cl)cc(CNCCCNC(=O)Nc2ccsc2)c1OCc1ccccc1 [Chem 1476] | 1.12 | 1.68 | 
C#Cc1cccc(CNCCCNC(=O)Nc2ccsc2)c1 [Chem 1478] | 1.06 | 0.096 | 
O=C(NCCCNCc1cc(Cl)sc1Cl)Nc1ccsc1 [Chem 1509] | 2.79 | 0.324 | 
Cc1sc2ccccc2c1CNCCCNC(=O)Nc1ccsc1 [Chem 1540] | 9.41 | 1.36 | 
C=C(F)c1sc(CNCCCNc2cc(O)c3ccccc3n2)c(C)c1Br [REP8839] |  |  | fold lower IC50 at 2500 µM ATP than at 25 µM ATP [8]: 30- to 50 fold
